# Literature values as cited in patent publication US8834942B2, “Enhanced absorption of oregano derived oils” (priority 2010, dated 2014).
# Settings: single emulsifier
substance,measurement,value
polyoxyethylene sorbitan monooleate,HLB value,about 15
